Laboratory results: patent publication US20200341000A1, “METHOD OF SCREENING COMPOUNDS FOR TREATING CNS DISORDERS” (SAGE THERAPEUTICS, INC., priority 2017, published 2020)
Read-outs that look alike come from different tables or passages of the source. Marks after values point to notes of the source that are not given here.

Tests used:
[1] = biological target: T1, α1β2γ2 GABAA receptors (Homo sapiens, UniProt P14867+P18507+P47870); assay: Whole-cell patch clamp, potentiation of GABA EC20 currents at recombinant synaptic-type receptors (LTK cells); format: cell-based; settings: n = 3
T1 construct: expressed in transfected cells
Experimental: Cellular electrophysiology was used to measure the pharmacological properties of ALLO, ganaxolone and SGE-516 in heterologous cell systems. Compounds were tested for their ability to affect GABA mediated currents at a submaximal agonist dose (GABA EC20=2 μM).
LTK cells were stably transfected with the α1β2γ2 subunits of the GABA receptor and CHO cells are transiently transfected with the α4β3γ subunits via the Lipofecatamine method. Cells were passaged at a confluence of about 50-80% and then seeded onto 35 mm sterile culture dishes containing 2 ml culture complete medium without antibiotics or antimycotics. Cells were cultivated at a density that enabled the recording of single cells without visible connections to other cells.
Whole-cell currents were measured with HEKA EPC-10 amplifiers using PatchMaster software. Bath solution for all experiments contained (in mM): NaCl 137, KCl 4, CaCl2 1.8, MgCl2 1, HEPES 10, D-Glucose 10, pH 7.4 with NaOH. Intracellular (pipette) solution contained (in mM): KCl 130, MgCl2 1, Mg-ATP 5, HEPES 10, EGTA 5, pH 7.2 with KOH. During experiments, cells and solutions were maintained at room temperature (19° C.-30° C.). For manual patchclamp recordings, cell culture dishes were placed on the dish holder of the microscope and continuously perfused (1 ml/min) with bath solution. After formation of a Gigaohm seal between the patch electrode and the cell (pipette resistance range: 2.5 MΩ-6.0MΩ; seal resistance range: >1 GΩ) the cell membrane across the pipette tip was ruptured to assure electrical access to the cell interior (whole-cell patch configuration).
Cells were voltage-clamped at a holding potential of −80 mV. GABAA receptors were activated by 2 μM GABA and compounds were sequentially applied at increasing concentrations for 30 s prior to a 2 s application of GABA. GABA and compounds were applied to cells via the Dynaflow perfusion system (Cellectricon, Sweden). Test compounds were dissolved in DMSO to form 10 mM stock solution and serially diluted to 0.01, 0.1, 1, and 10 μM in bath solution. […] All concentrations of test compound were tested on each cell. The relative percentage potentiation was defined as the peak amplitude in response to GABA EC20 in the presence of test compound divided by the peak amplitude in response to GABA EC20 alone, multiplied by 100.
ALLO and ganaxolone are known PAMs of both synaptic and extrasynaptic GABAAR-mediated currents. […] The α1β2γ2 or α4β3δ subunit combinations were chosen as representatives of typical synaptic and extrasynaptic GABAA receptors respectively.

[2] = tested on: sIPSCs in dentate gyms granule cells (DGGCs); assay: Acute (allosteric) modulation of sIPSCs in DGGCs of hippocampal slices; format: cell-based, mice; settings: for mean sIPSC amplitude before versus during exposure / mean sIPSC decay time in the presence of compound: 100 nM; for sIPSC Amplitude / sIPSC Decay / sIPSC Frequency: 100 nM acute exposure, n = 5 to 7 neurons
Experimental: Brain slices were prepared from 3- to 5-week-old male C57 mice. Mice were anesthetized with isoflurane, decapitated, and brains were rapidly removed and submerged in ice-cold cutting solution containing (mM): 126 NaCl, 2.5 KCl, 0.5 CaCl2, 2 MgCl2, 26 NaHCO3, 1.25 NaH2PO4, 10 glucose, 1.5 sodium pyruvate, and 3 kynurenic acid. Coronal 310 μm thick slices were cut with the vibratome VT1000S (Leica Microsystems, St Louis, Mo., USA). The slices were then transferred into incubation chamber filled with prewarmed (31-32° C.) oxygenated artificial cerebro-spinal fluid (ACSF) of the following composition (in mM): 126 NaCl, 2.5 KCl, 2 CaCl2, 2 MgCl2, 26 NaHCO3, 1.25 NaH2PO4, 10 glucose, 1.5 sodium pyruvate, 1 glutamine, 3 kynurenic acid and 0.005 GABA bubbled with 95% O2-5% CO2. Slices were allowed to recover at 32° C. for at least 1 hr before recording. Exogenous GABA was added in an attempt to standardize ambient GABA in the slice and provide an agonist source for newly inserted extrasynaptic GABAARs.
After recovery, a single slice was transferred to a submerged, dual perfusion recording chamber (Warner Instruments, Hamden, Conn., USA) on the stage of an upright microscope (Nikon FN-1) with a 40× water immersion objective equipped with DIC/IR optics. Slices were maintained at 32° C. and gravity-superfused with ACSF solution throughout experimentation and perfused at rate of 2 ml/min with oxygenated (O2/CO2 95/5%) ACSF.
Whole-cell currents were recorded from the dentate gyms granule cells (DGGCs) in 310-μm-thick coronal hippocampal slices. Patch pipettes (5-7MΩ) were pulled from borosilicate glass (World Precision Instruments) and filled with intracellular solution of the composition (in mM) as follows: 140 CsCl, 1 MgCl2, 0.1 EGTA, 10 HEPES, 2 Mg-ATP, 4 NaCl and 0.3 Na-GTP (pH=7.2 with CsOH). A 5 min period for stabilization after obtaining the whole-cell recording conformation (holding potential of −60 mV) was allowed before currents were recorded using an Axopatch 200B amplifier (Molecular Devices), low-pass filtered at 2 kHz, digitized at 20 kHz (Digidata 1440A; Molecular Devices), and stored for offline analysis.
For tonic current measurements, an all-points histogram was plotted for a 10 s period before and during 100 μM picrotoxin application, once the response reached a plateau level. Recordings with unstable baselines were discarded. Fitting the histogram with a Gaussian distribution gave the mean baseline current amplitude and the difference between the amplitudes before and during picrotoxin was considered to be the tonic current. The negative section of the all-points histogram which corresponds to the inward IPSCs was not fitted with a Gaussian distribution (Kretschmannova et al., 2013; Nusser and Mody, 2002). Series resistance and whole-cell capacitance were continually monitored and compensated throughout the course of the experiment. Recordings were eliminated from data analysis if series resistance increased by >20%. Spontaneous inhibitory post-synaptic currents (sIPSCs) were analyzed using the mini-analysis software (version 5.6.4; Synaptosoft, Decatur, Ga.). Minimum threshold detection was set to 3 times the value of baseline noise signal. To assess sIPSC kinetics, the recording trace was visually inspected and only events with a stable baseline, sharp rising phase, and single peak were used to negate artifacts due to event summation. Only recordings with a minimum of 200 events fitting these criteria were analyzed. sIPSCs amplitude, and frequency from each experimental condition was pooled and expressed as mean±SEM. To measure sIPSC decay, 100 consecutive events were averaged and the decay was fitted to a double exponential and the weighted decay constant (tw) was determined. Statistical analysis was performed by using Student t-test (paired and unpaired where appropriate), where p<0.05 is considered significant.

[3] = relative percentage potentiation of GABA EC20 peak current

T1 sequence (P14867 28-456): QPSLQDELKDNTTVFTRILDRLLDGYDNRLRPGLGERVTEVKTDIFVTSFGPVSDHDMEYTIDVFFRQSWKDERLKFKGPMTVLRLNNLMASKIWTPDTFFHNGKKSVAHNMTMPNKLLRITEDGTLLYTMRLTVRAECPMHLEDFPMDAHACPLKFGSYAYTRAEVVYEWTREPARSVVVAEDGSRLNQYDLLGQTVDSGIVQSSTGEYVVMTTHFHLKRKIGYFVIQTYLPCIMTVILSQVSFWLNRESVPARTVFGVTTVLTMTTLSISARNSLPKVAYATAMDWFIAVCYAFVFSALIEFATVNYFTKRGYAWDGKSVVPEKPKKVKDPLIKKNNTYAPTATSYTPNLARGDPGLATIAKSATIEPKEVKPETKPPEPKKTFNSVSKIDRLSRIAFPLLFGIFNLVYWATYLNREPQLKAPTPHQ
T1 sequence (P47870 25-512 limits assumed): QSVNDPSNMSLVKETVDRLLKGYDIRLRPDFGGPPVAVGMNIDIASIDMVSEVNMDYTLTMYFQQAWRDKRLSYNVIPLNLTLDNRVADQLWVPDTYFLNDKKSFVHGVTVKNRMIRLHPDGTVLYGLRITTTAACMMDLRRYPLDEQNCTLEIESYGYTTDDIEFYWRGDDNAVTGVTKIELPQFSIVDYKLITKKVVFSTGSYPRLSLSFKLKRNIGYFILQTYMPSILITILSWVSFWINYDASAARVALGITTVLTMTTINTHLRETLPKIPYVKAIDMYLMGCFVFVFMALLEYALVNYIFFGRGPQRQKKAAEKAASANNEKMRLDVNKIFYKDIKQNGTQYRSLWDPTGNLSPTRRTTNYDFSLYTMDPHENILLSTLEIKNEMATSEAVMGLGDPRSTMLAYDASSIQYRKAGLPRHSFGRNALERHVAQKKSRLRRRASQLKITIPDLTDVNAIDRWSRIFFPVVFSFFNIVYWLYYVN
T1 sequence (P18507 40-475): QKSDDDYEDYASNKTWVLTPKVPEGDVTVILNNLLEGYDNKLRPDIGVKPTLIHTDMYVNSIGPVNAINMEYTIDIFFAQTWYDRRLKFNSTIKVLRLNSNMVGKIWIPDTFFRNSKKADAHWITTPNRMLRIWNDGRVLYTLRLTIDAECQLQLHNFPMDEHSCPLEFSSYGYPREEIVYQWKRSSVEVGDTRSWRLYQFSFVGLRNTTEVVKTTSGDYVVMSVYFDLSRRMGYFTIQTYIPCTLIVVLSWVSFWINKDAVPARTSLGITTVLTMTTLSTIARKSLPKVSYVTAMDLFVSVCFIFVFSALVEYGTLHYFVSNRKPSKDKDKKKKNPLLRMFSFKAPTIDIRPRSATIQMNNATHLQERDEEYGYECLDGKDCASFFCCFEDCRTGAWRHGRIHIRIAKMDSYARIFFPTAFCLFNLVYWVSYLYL

Structure (SMILES)	EC50 ([1]; EC50, potentiation of GABA current, α1β2γ2, GABA EC20 (2 μM)) [nM]	Emax ([1]; LTK, relative percentage potentiation of GABA EC20 peak current, read-out: Emax ± S.E.M., α1β2γ2) [%]	Emax ± S.E.M., α1β2γ2 [1, 3] [%]	mean sIPSC amplitude before versus during exposure [2]	mean sIPSC decay time in the presence of compound [2]	sIPSC Amplitude [2] [pA]	sIPSC Decay [2]	sIPSC Frequency [2] [Hz]	pEC50 ± S.E.M., α1β2γ2 ([1]; GABA EC20 (2 μM))	EC50 ([1]; GABA EC20 (2 μM), read-out: EC50, potentiation of GABA current, α1β2γ2) [nM]
CC(=O)[C@H]1CC[C@H]2[C@@H]3CC[C@H]4C[C@H](O)CC[C@]4(C)[C@H]3CC[C@]12C [ALLO, Allopregnanolone]	115	229	229 ± 19	no significant difference	significantly increased	59.1 ± 0.6	19.2 ± 1.3^a ms	3.4 ± 1.0		
C[C@@]1(O)CC[C@H]2[C@H](CC[C@@H]3[C@@H]2CC[C@]2(C)[C@@H](C(=O)Cn4nccn4)CC[C@@H]32)C1 [SGE-516]			219	no significant difference	significantly increased	52.9 ± 0.7	15.1 ± 0.8^b ms	4.6 ± 0.6	7.2 ± 0.3	61
